Measurements from ChEMBL document CHEMBL3227970, “The benzodiazepine story” (J Med Chem, 1979).
Values joined by “and” are separate entries in the source; they are usually repeats but may differ in a detail not shown here. Equal values may be shown once. Active and inactive are the calls of the source. The rule behind the calls is not given here.

Assays:
Mus musculus [1] = assay: Induction of muscle relaxation/sedation in po dosed mouse by inclined screen test; format: functional
Mus musculus [2] = species: Mus musculus; assay: Toxicity in mouse assessed as effect on central nervous system; format: organism-based; details: in vivo
Mus musculus [3] = assay: Anticonvulsant activity in po dosed mouse assessed as reduction of minimal electroshock-induced seizures; format: functional
Mus musculus [4] = assay: Anticonvulsant activity in po dosed mouse assessed as reduction of pentylenetetrazole-induced seizures; format: functional
Rhesus monkey = assay: Induction of taming effect in monkey by foot shock method; format: functional, organism-based; details: Macaca mulatta
Mus musculus [5] = species: Mus musculus; assay: Toxicity in mouse; format: organism-based; details: in vivo
Mus musculus [6] = assay: Anticonvulsant activity in po dosed mouse assessed as reduction of maximal electroshock-induced seizures; format: functional
Felis catus = assay: Muscle relaxing activity in po dosed cat; format: functional
Mus musculus [7] = assay: Induction of taming effect in po dosed mouse by foot shock method; format: functional

Q: With `CNC1=Nc2ccc(Cl)cc2C(c2ccccc2)=[N+]([O-])C1.Cl` [CHLORDIAZEPOXIDE HYDROCHLORIDE] as the molecule, how does the Activity (Mus musculus [1]) read?
A: Its Activity is 100 mg/kg.

Q: And the Activity (Mus musculus [2])?
A: The Activity was “Non-toxic”.

Q: What about the Activity (Mus musculus [3]) of the same molecule?
A: The Activity was 150 mg/kg.

Q: What about the Activity (Mus musculus [4]) of the same molecule?
A: Its Activity is 18 mg/kg.

Q: And the Activity (Rhesus monkey)?
A: The Activity was “Active”.

Q: And the Activity (Mus musculus [5])?
A: The Activity was 620 mg/kg.

Q: What about the Activity (Mus musculus [6]) of the same molecule?
A: The Activity was 92 mg/kg.

Q: And the Activity (Felis catus)?
A: The Activity was 2 mg/kg.

Q: What about the Activity (Mus musculus [7]) of the same molecule?
A: The Activity was 40 mg/kg.

Q: `CCC1(c2ccccc2)C(=O)NC(=O)NC1=O` [PHENOBARBITAL] was tested. Which Activity (Mus musculus [1]) did it give?
A: Its Activity is 120 mg/kg.

Q: What about the Activity (Mus musculus [3]) of the same molecule?
A: The Activity was 90 mg/kg.

Q: And the Activity (Mus musculus [4])?
A: The Activity was 75 mg/kg.

Q: What about the Activity (Mus musculus [6]) of the same molecule?
A: Its Activity is 18 mg/kg.

Q: And the Activity (Felis catus)?
A: Its Activity is 10 mg/kg.

Q: What about the Activity (Mus musculus [7]) of the same molecule?
A: The Activity was 80 mg/kg.

Q: Which results are given for `CN(C)CCCN1c2ccccc2Sc2ccc(Cl)cc21` [CHLORPROMAZINE]?
A: Activity (Mus musculus [1]): 17 mg/kg; Activity (Mus musculus [2]): Toxic; Activity (Mus musculus [3]): 600 mg/kg; Activity (Mus musculus [4]): 42 mg/kg; Activity (Mus musculus [6]): 150 mg/kg; Activity (Felis catus): 2.5 mg/kg; Activity (Mus musculus [7]): 20 mg/kg

Q: Which results are given for `CCCC(C)(COC(N)=O)COC(N)=O` [MEPROBAMATE]?
A: Activity (Mus musculus [1]): 250 mg/kg; Activity (Mus musculus [3]): 167 mg/kg; Activity (Mus musculus [4]): 150 mg/kg; Activity (Mus musculus [6]): 200 mg/kg; Activity (Felis catus): 100 mg/kg; Activity (Mus musculus [7]): 250 mg/kg

Q: With `COC(=O)[C@H]1[C@H]2C[C@@H]3c4[nH]c5cc(OC)ccc5c4CCN3C[C@H]2C[C@@H](OC(=O)c2cc(OC)c(OC)c(OC)c2)[C@@H]1OC` [RESERPINE] as the molecule, how does the Activity (Mus musculus [2]) read?
A: Its Activity is “Toxic”.

Q: What does the source list for `O=C1C[N+]([O-])=C(c2ccccc2)c2cc(Cl)ccc2N1` [DEMOXEPAM]?
A: Activity (Mus musculus [1]): 100 mg/kg; Activity (Mus musculus [3]): 150 mg/kg; Activity (Mus musculus [4]): 15 mg/kg; Activity (Mus musculus [6]): 150 mg/kg; Activity (Felis catus): 2 mg/kg; Activity (Mus musculus [7]): 20 mg/kg

Q: With `CN1C(=O)CN=C(c2ccccc2)c2cc(Cl)ccc21` [DIAZEPAM] as the molecule, how does the Activity (Mus musculus [1]) read?
A: Its Activity is 75 mg/kg and 30 mg/kg.
